This assay concerns Swiss mice, Sarcoma 180 sc, mean tumor weight T/C. Kind of assay: NCI In Vivo Anticancer Drug Screen. Data for tumor model Sarcoma 180 (subcutaneous) in Swiss mice. The settings on record: endpoint: mean tumor weight, higher = larger tumour. The method, boiled down: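 Mice bearing transplanted tumors were treated with compound, and survival or tumor size was measured. Values are expressed as the treated-group measurement (T) divided by the vehicle-treated control measurement (C).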

[1] abbreviates: dose: 50.0 mg/kg/injection, schedule: Q01DX007 (oral), vehicle: carboxymethylcellulose (CMC).
Where [2] appears, read: dose: 100.0 mg/kg/injection, schedule: Q01DX007 (oral), vehicle: carboxymethylcellulose (CMC).
Where [3] appears, read: dose: 200.0 mg/kg/injection, schedule: Q01DX007 (oral), vehicle: carboxymethylcellulose (CMC).
The mark [4] stands for this setting: dose: 25.0 mg/kg/injection, schedule: Q01DX007 (ip), vehicle: carboxymethylcellulose (CMC).
The mark [5] stands for this setting: dose: 50.0 mg/kg/injection, schedule: Q01DX007 (ip), vehicle: carboxymethylcellulose (CMC).

“And” between values parts separate entries of the source, which are not always exact repeats. Identical values can stand only once.

What is called T/C is the result in the treated group divided by that in the control group, in per cent. As to `CN(C)c1nc(N(C)C)nc(N(C)C)n1`, the T/C is, setting by setting: (dose: 7.34 mg/kg/injection, schedule: Q#A X014 (ip), vehicle: carboxymethylcellulose (CMC)) 86 % of control; (dose: 14.67 mg/kg/injection, schedule: Q#A X014 (ip), vehicle: carboxymethylcellulose (CMC)) 90 % of control; (dose: 22.5 mg/kg/injection, schedule: Q01DX007 (ip), vehicle: carboxymethylcellulose (CMC)) 117 % of control; (dose: 23.45 mg/kg/injection, schedule: Q#A X014 (ip), vehicle: other) 91 % of control; (dose: 25.0 mg/kg/injection, schedule: Q01DX007 (ip), vehicle: methylcellulose (MC)) 64 % of control; (dose: 25.0 mg/kg/injection, schedule: Q01DX007 (oral), vehicle: carboxymethylcellulose (CMC)) 58 % of control. Besides, the T/C (dose: 25.0 mg/kg/injection, schedule: Q01DX007 (oral), vehicle: methylcellulose (MC)) was 102 % of control; the T/C (dose: 29.35 mg/kg/injection, schedule: Q#A X014 (ip), vehicle: carboxymethylcellulose (CMC)) was 75 % of control; the T/C (dose: 29.35 mg/kg/injection, schedule: Q#A X014 (ip), vehicle: other) is 80 % of control; the T/C (dose: 31.25 mg/kg/injection, schedule: Q#A X014 (ip), vehicle: carboxymethylcellulose (CMC)) was 53 % of control; the T/C (dose: 39.1 mg/kg/injection, schedule: Q#A X014 (ip), vehicle: other) was 83 % of control; the T/C (dose: 45.0 mg/kg/injection, schedule: Q01DX007 (ip), vehicle: carboxymethylcellulose (CMC)) is 88 % of control. Further, the T/C is 49 % of control (dose: 46.9 mg/kg/injection, schedule: Q01DX007 (ip), vehicle: other); 61 % of control (dose: 50.0 mg/kg/injection, schedule: Q01DX007 (ip), vehicle: methylcellulose (MC)); 87 % of control under setting [1]; 116 % of control (dose: 50.0 mg/kg/injection, schedule: Q01DX007 (oral), vehicle: methylcellulose (MC)); 51 % of control (dose: 58.7 mg/kg/injection, schedule: Q01DX007 (ip), vehicle: other); 77 % of control (dose: 58.7 mg/kg/injection, schedule: Q#A X014 (ip), vehicle: other). Further, the T/C runs as follows: (dose: 62.5 mg/kg/injection, schedule: Q#A X014 (ip), vehicle: carboxymethylcellulose (CMC)) 26 % of control; (dose: 78.2 mg/kg/injection, schedule: Q01DX007 (ip), vehicle: other) 54 % of control; (dose: 90.0 mg/kg/injection, schedule: Q01DX007 (ip), vehicle: carboxymethylcellulose (CMC)) 77 % of control; (dose: 100.0 mg/kg/injection, schedule: Q01DX007 (ip), vehicle: methylcellulose (MC)) 75 % of control; under setting [2], 67 % of control; (dose: 100.0 mg/kg/injection, schedule: Q01DX007 (oral), vehicle: methylcellulose (MC)) 108 % of control. Also, the T/C runs as follows: (dose: 117.4 mg/kg/injection, schedule: Q01DX007 (ip), vehicle: other) 40 % of control; (dose: 200.0 mg/kg/injection, schedule: Q01DX007 (ip), vehicle: methylcellulose (MC)) 94 % of control; under setting [3], 57 % of control; (dose: 200.0 mg/kg/injection, schedule: Q01DX007 (oral), vehicle: methylcellulose (MC)) 114 % of control.

In the case of `CCCCCCCCCCCCCCCCCC1=NC(C)CC(C)(C)O1` (stereo not given), the T/C (dose: 187.5 mg/kg/injection, schedule: Q#A X014 (ip), vehicle: saline) is 63 % of control.

Take `CS(=O)(=O)OCC#CCOS(C)(=O)=O`: the T/C was 99 % of control (dose: 10.0 mg/kg/injection, schedule: Q01DX007 (ip), vehicle: saline); 84 % of control (dose: 20.0 mg/kg/injection, schedule: Q01DX007 (ip), vehicle: saline); 104 % of control (dose: 40.0 mg/kg/injection, schedule: Q01DX007 (ip), vehicle: saline).

`CS(=O)(=O)OCCCCOS(C)(=O)=O`: the T/C reads like this: (dose: 4.12 mg/kg/injection, schedule: Q#A X014 (ip), vehicle: carboxymethylcellulose (CMC)) 108 % of control; (dose: 6.25 mg/kg/injection, schedule: Q#A X014 (ip), vehicle: carboxymethylcellulose (CMC)) 91 % of control; (dose: 8.25 mg/kg/injection, schedule: Q#A X014 (ip), vehicle: carboxymethylcellulose (CMC)) 119 % of control; (dose: 9.87 mg/kg/injection, schedule: Q01DX007 (ip), vehicle: carboxymethylcellulose (CMC)) 87 % of control; (dose: 12.5 mg/kg/injection, schedule: Q#A X014 (ip), vehicle: carboxymethylcellulose (CMC)) 103 % of control; (dose: 16.5 mg/kg/injection, schedule: Q#A X014 (ip), vehicle: carboxymethylcellulose (CMC)) 85 % of control. Further, the T/C runs as follows: (dose: 19.75 mg/kg/injection, schedule: Q01DX007 (ip), vehicle: carboxymethylcellulose (CMC)) 65 % of control; (dose: 25.0 mg/kg/injection, schedule: Q#A X014 (ip), vehicle: carboxymethylcellulose (CMC)) 96 % of control; (dose: 33.0 mg/kg/injection, schedule: Q#A X014 (ip), vehicle: carboxymethylcellulose (CMC)) 66 % of control; (dose: 39.5 mg/kg/injection, schedule: Q01DX007 (ip), vehicle: carboxymethylcellulose (CMC)) 60 % of control.

As to `CC(C)C(=O)OCC1OC(n2cnc3c(=S)nc(N)[nH]c32)C(OC(=O)C(C)C)C1OC(=O)C(C)C` (stereo not given), the T/C was 72 % of control (dose: 6.0 mg/kg/injection, schedule: Q01DX007 (ip), vehicle: carboxymethylcellulose (CMC)); 42 % of control (dose: 9.0 mg/kg/injection, schedule: Q01DX007 (ip), vehicle: carboxymethylcellulose (CMC)); 42 % of control (dose: 14.0 mg/kg/injection, schedule: Q01DX007 (ip), vehicle: methylcellulose (MC)); 5 % of control and 21 % of control (dose: 21.0 mg/kg/injection, schedule: Q01DX007 (ip), vehicle: carboxymethylcellulose (CMC)); 29 % of control (dose: 21.0 mg/kg/injection, schedule: Q01DX007 (ip), vehicle: methylcellulose (MC)); 7 % of control (dose: 31.0 mg/kg/injection, schedule: Q01DX007 (ip), vehicle: carboxymethylcellulose (CMC)). The T/C (dose: 31.0 mg/kg/injection, schedule: Q01DX007 (ip), vehicle: methylcellulose (MC)) was 22 % of control.

Regarding `CN(C)[C@@H]1C(=O)C(C(=O)NCNc2nc(=S)c3[nH]cnc3[nH]2)=C(O)[C@@]2(O)C(=O)C3=C(O)c4c(O)cccc4[C@@](C)(O)[C@H]3C[C@@H]12`, the T/C was 26 % of control under setting [4] and 15 % of control under setting [5].

Consider `CC(=O)OCC1OC(n2ccc(N)nc2=O)C(OC(C)=O)C1OC(C)=O` (stereo not given), for which the T/C is, setting by setting: under setting [1], 44 % of control; under setting [2], 32 % of control; under setting [3], 32 % of control; (dose: 400.0 mg/kg/injection, schedule: Q01DX007 (oral), vehicle: carboxymethylcellulose (CMC)) 63 % of control.

As to `CC(C)CN(C)/N=N/c1nc[nH]c1C(N)=O`, the T/C reads like this: under setting [4], 92 % of control; under setting [5], 41 % of control.

Turning to `CC(C)CCCCCCCCCCCCC(=O)NCC(=O)NC1C(O)C(O)C(Nc2ncnc3nc[nH]c23)OC1C(O)CO` (stereo not given), the T/C was 63 % of control (dose: 0.3 mg/kg/injection, schedule: Q## X000 (ip), vehicle: carboxymethylcellulose (CMC)); 61 % of control (dose: 0.44 mg/kg/injection, schedule: Q## X000 (ip), vehicle: carboxymethylcellulose (CMC)); 58 % of control and 70 % of control (dose: 0.6 mg/kg/injection, schedule: Q01DX007 (ip), vehicle: carboxymethylcellulose (CMC)); 53 % of control (dose: 0.66 mg/kg/injection, schedule: Q## X000 (ip), vehicle: carboxymethylcellulose (CMC)); 36 % of control and 56 % of control (dose: 0.9 mg/kg/injection, schedule: Q01DX007 (ip), vehicle: carboxymethylcellulose (CMC)); 36 % of control (dose: 1.0 mg/kg/injection, schedule: Q## X000 (ip), vehicle: carboxymethylcellulose (CMC)). Moreover, the T/C (dose: 1.35 mg/kg/injection, schedule: Q01DX007 (ip), vehicle: carboxymethylcellulose (CMC)) was 82 % of control.

Regarding `c1ccc2nc3c(nc2c1)[nH]c1ccccc13`, the T/C by setting is: (dose: 62.5 mg/kg/injection, schedule: Q01DX007 (ip), vehicle: carboxymethylcellulose (CMC)) 76 % of control; (dose: 125.0 mg/kg/injection, schedule: Q01DX007 (ip), vehicle: carboxymethylcellulose (CMC)) 67 % of control; (dose: 250.0 mg/kg/injection, schedule: Q01DX007 (ip), vehicle: carboxymethylcellulose (CMC)) 114 % of control.

For `N#CCOC(=O)CCC(NC(=O)OCc1ccccc1)C(N)=O` (stereo not given), the T/C under setting [5] was 94 % of control.

On to `O=C(O)CCCNC(=O)c1ccc([N+](=O)[O-])cc1`, for which the T/C (dose: 125.0 mg/kg/injection, schedule: Q01DX007 (ip), vehicle: methylcellulose (MC)) was 67 % of control and the T/C (dose: 250.0 mg/kg/injection, schedule: Q01DX007 (ip), vehicle: methylcellulose (MC)) was 78 % of control.

These data come from PubChem BioAssay AID342 (DTP/NCI, 2004).
